Read-outs that look alike come from different tables or passages of the source.
How the values were obtained:
Format in all cases: cell-based
[1] = target: T1, Ikaros (protein product of gene IKZF1) (Homo sapiens, UniProt Q13422+Q96SW2); test: Quantification of Ikaros degradation in OCI-LY10 cells (quantitative immunoblotting); settings: 6 h treatment
T1 construct: endogenous in cells; host or cells: OCI-LY10
Procedure: (§1) Degradation of Ikaros (protein product of gene IKZF1) and Aiolos (protein product of gene IKZF3) were determined by quantitative immunoblotting as follows. OCI-LY10 cells, 2×10^6 cells/well, were treated with listed concentrations of IRAK4 degraders or control compounds in 6 well plates for 6 h. Cells were collected, washed with cold PBS, lysed in RIPA buffer (Boston BioProducts BP-115D) with protease/phosphatase inhibitor cocktail (Roche 05892791001/Roche 04906837001) and centrifuged at 13000 RPM for 20 min to precipitate insoluble material. The supernatant fraction was diluted in SDS-PAGE loading buffer (Beyotime Bio P0015) and 20 μL of each sample was resolved on 4-12% Bis-Tris SDS-PAGE gels (Novex, WG1402BOX). Resolved samples were transferred to nitrocellulose membranes by wet electro-transfer method at 250 mV for 1.5 h. The membrane was blocked with LICOR blocking buffer (LI-COR, 927-50000) for 1 hour, washed three times with TBST (CST #99975) for 5 minutes each and incubated with primary antibody prepared in block buffer with 0.1% Tween-20 (Solarbio, P8220) at 4° C. overnight. Ikaros antibody was rabbit monoclonal D6N9Y (CST #14859), at 1:1000 dilution. Aiolos antibody was rabbit monoclonal D1C1E (CST #15103), at 1:1000 dilution. Signal was normalized to mouse anti-beta-Actin monoclonal 8H10D10 (CST #3700) used at 1:10,000 dilution. After incubation in primary antibodies, membranes were washed three times with TBST, 5 minutes each, incubated with fluorescently labeled secondary antibodies anti-rabbit IgG (Licor, 926-32211) at 1:5000 dilution; anti-mouse IgG (LI-COR, 926-68070) at 1:5000 dilution, for 1 hour at RT. After incubation in secondary, membranes were washed three times with TBST, 5 minutes each and read on LICOR Odyssey imager. Data was reported as signal for Ikaros or Aiolos relative to signal for actin, and normalized to DMSO-treated control.

OCI-LY10 cells = test: CTG Cell Viability Assay - OCI-LY10; settings: Homo sapiens, 96 h, CellTiter-Glo, 4 days incubation
Procedure: Compound-mediated viability effect on OCI-LY10 or SUDHL-2 was quantitatively determined using the CellTiter-Glo® Luminescent Cell Viability Assay kit from Promega (Catalog number G7570) following manufacturer's recommended procedures. Briefly, OCI-LY10 or SUDHL-2 cells were seeded into 384 well plates (Grenier Bio-One, Catalog number 781080) with a density of 10,000 cells per well. Compounds were then added to the assay plate with final top concentration of 10 μM and 1:3 dilution series with total of 9 doses. The final DMSO concentration was normalized to 0.2%. The assay plates were incubated at 37° C. for 4 days under 5% CO2. Then the assay plate was equilibrated at room temperature for 10 minutes. To determine cell viability, 30 μL CellTiter Glo reagent was added to each well and the assay plate was centrifuged at 1000 rpm for 30 second, incubated at room temperature for 10 min, and analyzed by detecting the luminescence using a multimode plate reader (EnVision 2105, PerkinElmer). The data was then analyzed by software Prism 7.0 from GraphPad and the dose response curves were fit using a three-parameter logistic equation to calculate IC50.

IRAK4 = target: T2, IRAK4 (Homo sapiens, UniProt Q9NWZ3); test: IRAK4 MSD Degradation in OCI-LY10; settings: OCI-LY10 cells
T2 construct: endogenous in cells; host or cells: OCI-LY10
T2 sequence (Q9NWZ3 1-460): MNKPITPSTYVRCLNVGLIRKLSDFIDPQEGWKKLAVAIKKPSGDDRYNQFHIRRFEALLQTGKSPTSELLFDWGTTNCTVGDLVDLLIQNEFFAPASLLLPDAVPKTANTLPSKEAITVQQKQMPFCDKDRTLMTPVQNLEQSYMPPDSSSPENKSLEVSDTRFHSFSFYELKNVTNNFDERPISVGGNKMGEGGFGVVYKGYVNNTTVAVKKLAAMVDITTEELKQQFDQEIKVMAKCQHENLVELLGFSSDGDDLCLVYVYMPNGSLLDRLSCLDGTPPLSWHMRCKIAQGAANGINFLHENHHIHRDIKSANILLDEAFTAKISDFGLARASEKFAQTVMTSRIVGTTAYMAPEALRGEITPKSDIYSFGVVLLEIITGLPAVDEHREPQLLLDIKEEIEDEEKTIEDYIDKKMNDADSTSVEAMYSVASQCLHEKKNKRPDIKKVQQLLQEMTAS
Procedure: Degradation of IRAK4 in OCI-LY10 was quantitatively measured using Meso Scale Discovery technology. OCI-LY10 cells were seeded in 96-well plates (Corning 3799) with a density of 300,000 cells per well in 100 μL fresh media. Compounds were then added to the assay plates with a final top concentration of 1 to 10 μM in a 1:3 dilution series with total of 8 doses. The assay plates were then incubated for 4 to 24 hours at 37° C. under 5% CO2. The assay plates were then centrifuged for 5 minutes and the cell pellets were treated with 100 μL/well RIPA lysis buffer (Boston BioProducts BP-115D) with proteinase inhibitors. To prepare MSD assay plates (Meso Scale Discovery Catalog number L15XA-3), the plates were coated with 2 μg/mL capture antibody (mouse Anti-IRAK4 antibody [2H9], ab119942) in PBS, at 40 μL/well. The plates were then incubated overnight at 4° C., washed 3 times with 150 μL/well TBST buffer (Cell Signaling Technology, Catalog number 9997S) and blocked with 150 μL/well blocking buffer (Meso Scale Discovery Catalog number R93BA-4). Cell lysates were then added to MSD assay plates and the plates were incubated at room temperature for 1 hour. The plates were then washed 3 times with 150 μL/well TBST buffer and 25 μL/well primary detection antibody (rabbit Anti-IRAK4 antibody [Y279], from Abcam. Catalog number ab32511, 1 μg/mL). The assay plates were then incubated at room temperature for 1 hour, washed 3 times with 150 μL/well TBST buffer and 25 μL/well secondary detection antibody, SULFO-TAG anti-rabbit antibody were added (anti rabbit antibody from Meso Scale Discovery, Catalog number R32AB-1, 1 μg/mL). The assay plates were then incubated at room temperature for 1 hour, washed 3 times with 150 μL/well TBST buffer, and 150 μL/well MSD reading buffer (Meso Scale Discovery catalog number R92TC-2) was added. The plates were then analyzed by a MSD reader (Meso Scale Discovery, Model Quick Plex SQ 120). The data was then analyzed by software Prism 7.0 from GraphPad and the dose-depended IRAK4 degradation were fit using a three-parameter logistic equation to calculate DC50.

[2] = target: T3, Aiolos (protein product of gene IKZF3) (Homo sapiens, UniProt Q96SW2+Q9UKT9); test: Quantification of Aiolos degradation in OCI-LY10 cells (quantitative immunoblotting); settings: 6 h treatment
T3 construct: endogenous in cells; host or cells: OCI-LY10
Procedure: as §1

[3] = 24 hrs incubation, read-out: IRAK4 degradation in OCI-LY10 at 24 hrs: DC50

T3 sequence (Q9UKT9 whole entry): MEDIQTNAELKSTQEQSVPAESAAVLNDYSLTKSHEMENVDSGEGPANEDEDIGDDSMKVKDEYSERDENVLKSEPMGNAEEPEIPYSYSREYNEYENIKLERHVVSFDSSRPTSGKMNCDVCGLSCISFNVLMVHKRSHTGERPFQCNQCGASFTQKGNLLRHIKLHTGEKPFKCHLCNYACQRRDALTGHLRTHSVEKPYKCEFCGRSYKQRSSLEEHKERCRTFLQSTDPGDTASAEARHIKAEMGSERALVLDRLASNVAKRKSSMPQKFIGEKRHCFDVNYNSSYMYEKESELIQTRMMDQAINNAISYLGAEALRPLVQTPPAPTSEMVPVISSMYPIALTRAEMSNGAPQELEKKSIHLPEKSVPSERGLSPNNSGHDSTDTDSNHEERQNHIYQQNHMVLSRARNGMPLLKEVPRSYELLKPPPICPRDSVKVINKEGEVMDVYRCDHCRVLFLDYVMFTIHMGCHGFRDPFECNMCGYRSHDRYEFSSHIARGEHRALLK
T3 sequence (Q96SW2 whole entry): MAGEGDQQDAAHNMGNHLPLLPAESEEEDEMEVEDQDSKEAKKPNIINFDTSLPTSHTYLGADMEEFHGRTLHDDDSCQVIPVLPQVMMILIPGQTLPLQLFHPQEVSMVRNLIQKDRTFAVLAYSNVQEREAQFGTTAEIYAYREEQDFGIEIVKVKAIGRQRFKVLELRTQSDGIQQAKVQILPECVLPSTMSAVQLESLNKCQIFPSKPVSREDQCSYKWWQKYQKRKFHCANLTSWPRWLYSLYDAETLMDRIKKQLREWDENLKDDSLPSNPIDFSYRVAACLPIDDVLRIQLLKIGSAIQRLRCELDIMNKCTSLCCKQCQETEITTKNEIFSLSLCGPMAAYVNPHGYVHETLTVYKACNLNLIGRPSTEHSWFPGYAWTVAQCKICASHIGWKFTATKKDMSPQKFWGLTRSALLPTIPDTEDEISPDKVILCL
T3 sequence (Q16531 whole entry partner): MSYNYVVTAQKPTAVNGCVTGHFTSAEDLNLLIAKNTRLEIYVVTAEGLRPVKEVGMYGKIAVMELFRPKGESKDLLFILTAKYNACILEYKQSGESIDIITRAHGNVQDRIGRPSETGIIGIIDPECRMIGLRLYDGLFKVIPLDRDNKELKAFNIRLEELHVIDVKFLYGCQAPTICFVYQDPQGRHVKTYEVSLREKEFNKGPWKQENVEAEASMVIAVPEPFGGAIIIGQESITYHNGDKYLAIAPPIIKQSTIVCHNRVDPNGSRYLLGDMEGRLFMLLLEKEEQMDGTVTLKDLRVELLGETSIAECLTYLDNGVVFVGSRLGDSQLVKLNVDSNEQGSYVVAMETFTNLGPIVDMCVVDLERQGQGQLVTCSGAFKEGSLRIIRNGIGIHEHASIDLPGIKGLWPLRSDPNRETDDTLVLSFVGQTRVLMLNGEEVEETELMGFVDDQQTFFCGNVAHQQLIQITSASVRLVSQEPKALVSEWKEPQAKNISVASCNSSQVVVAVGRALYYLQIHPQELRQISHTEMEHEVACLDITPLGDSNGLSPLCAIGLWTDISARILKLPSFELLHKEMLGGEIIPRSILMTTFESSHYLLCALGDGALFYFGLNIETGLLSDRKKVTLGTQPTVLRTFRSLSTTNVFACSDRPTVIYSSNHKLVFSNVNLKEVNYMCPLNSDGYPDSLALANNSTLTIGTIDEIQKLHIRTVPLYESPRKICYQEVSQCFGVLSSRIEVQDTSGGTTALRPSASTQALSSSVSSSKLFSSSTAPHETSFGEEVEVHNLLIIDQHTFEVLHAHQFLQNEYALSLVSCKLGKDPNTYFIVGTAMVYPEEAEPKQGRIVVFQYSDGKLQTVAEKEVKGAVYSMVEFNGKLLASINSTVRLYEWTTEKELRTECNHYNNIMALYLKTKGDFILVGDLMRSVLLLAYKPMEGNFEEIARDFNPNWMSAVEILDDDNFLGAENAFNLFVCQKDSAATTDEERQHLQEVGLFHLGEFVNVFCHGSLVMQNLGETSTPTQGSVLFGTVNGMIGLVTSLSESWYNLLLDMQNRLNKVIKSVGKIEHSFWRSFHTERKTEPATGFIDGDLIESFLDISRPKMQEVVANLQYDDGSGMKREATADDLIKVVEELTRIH
T1 sequence (Q13422 whole entry): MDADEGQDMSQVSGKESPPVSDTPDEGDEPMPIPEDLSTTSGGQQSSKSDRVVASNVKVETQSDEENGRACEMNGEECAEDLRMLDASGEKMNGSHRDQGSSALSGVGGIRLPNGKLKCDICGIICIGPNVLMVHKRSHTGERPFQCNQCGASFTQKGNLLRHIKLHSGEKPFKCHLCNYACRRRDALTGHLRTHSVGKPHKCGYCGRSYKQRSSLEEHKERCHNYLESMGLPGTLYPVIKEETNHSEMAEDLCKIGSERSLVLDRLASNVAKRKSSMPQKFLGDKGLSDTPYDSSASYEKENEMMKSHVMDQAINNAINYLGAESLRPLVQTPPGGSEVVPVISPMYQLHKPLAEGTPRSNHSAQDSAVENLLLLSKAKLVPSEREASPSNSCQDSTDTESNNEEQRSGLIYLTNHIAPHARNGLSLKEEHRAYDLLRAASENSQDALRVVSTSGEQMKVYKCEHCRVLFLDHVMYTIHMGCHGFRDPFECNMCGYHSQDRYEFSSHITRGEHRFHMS
T1 sequence (Q96SW2 whole entry): as the sequence (Q96SW2 whole entry) above
T1 sequence (Q16531 whole entry partner): as the sequence (Q16531 whole entry partner) above

DC50 [1] [nM] | IC50 (OCI-LY10 cells) [nM] | DC50 (IRAK4; [3]) [nM] | DC50 [2] [nM] | DC50 (IRAK4; 4 hrs incubation, read-out: IRAK4 degradation in OCI-LY10 at 4 hrs: DC50) [nM] | SMILES
 | < 50 |  |  |  | CC(C)(O)c1cc2nc([C@H]3CC[C@@H](N4CC5(CC(CCNc6cccc7c6C(=O)N(C6CCC(=O)NC6=O)C7=O)C5)C4)CC3)sc2cc1NC(=O)c1cccc(C(F)(F)F)n1 (single isomer, unassigned) [I-64]
 | < 50 | < 50 |  |  | CC(C)(O)c1cc2nc([C@H]3CC[C@H](CN4CC5(CC(CCNc6cccc7c6C(=O)N(C6CCC(=O)NC6=O)C7=O)C5)C4)CC3)sc2cc1N1CCc2ccccc2C1=O (stereo partly drawn) [I-60]
< 50 | < 50 | 100 to 500 | < 50 |  | CC(C)(O)c1cc2nc([C@H]3CC[C@H](CN4CC5(CC(CCNc6cccc7c6C(=O)N(C6CCC(=O)NC6=O)C7=O)C5)C4)CC3)sc2cc1NC(=O)c1ccnc(C(F)(F)F)n1 (stereo partly drawn) [I-54]
< 50 | < 50 | 100 to 500 | < 50 |  | CC(C)(O)c1cc2nc([C@H]3CC[C@H](CN4CC5(CC(CCNc6cccc7c6C(=O)N(C6CCC(=O)NC6=O)C7=O)C5)C4)CC3)sc2cc1NC(=O)c1cccc(C(F)(F)F)c1 (stereo partly drawn) [I-53]
 | < 50 |  |  |  | CC(C)(O)c1cc2nc([C@H]3CC[C@H](CN4CC5(CC(CCNc6cccc7c6C(=O)N(C6CCC(=O)NC6=O)C7=O)C5)C4)CC3)sc2cc1NC(=O)c1cnccn1 (stereo partly drawn) [I-58]
 | < 50 |  |  |  | CC(C)(O)c1cc2nc([C@H]3CC[C@H](CN4CC5(CC(CCNc6cccc7c6C(=O)N(C6CCC(=O)NC6=O)C7=O)C5)C4)CC3)sc2cc1NC(=O)c1ccccn1 (stereo partly drawn) [I-57]

Continued, compound first:

SMILES | DC50 [1] [nM] | IC50 (OCI-LY10 cells) [nM] | DC50 (IRAK4; [3]) [nM] | DC50 [2] [nM] | DC50 (IRAK4; 4 hrs incubation, read-out: IRAK4 degradation in OCI-LY10 at 4 hrs: DC50) [nM]
C[C@@H](CNc1cccc2c1C(=O)N(C1CCC(=O)NC1=O)C2=O)C1CC2(C1)CN(C[C@H]1CC[C@H](c3nc4cc(C(C)(C)O)c(NC(=O)c5cccc(C(F)(F)F)n5)cc4s3)CC1)C2 (stereo partly drawn) [I-32] | < 50 | 50 to 100 | < 50 | < 50 | 
Cc1cccc(C(=O)Nc2cc3sc([C@H]4CC[C@H](CN5CCC6(CC5)CC(CCNc5cccc7c5C(=O)N(C5CCC(=O)NC5=O)C7=O)C6)CC4)nc3cc2C(C)(C)O)n1 (stereo partly drawn) [I-22] | < 50 | < 50 | 50 to 100 | < 50 | 
COc1cc2nc([C@H]3CC[C@H](CN4CCC5(CC4)CC(CCNc4cccc6c4C(=O)N(C4CCC(=O)NC4=O)C6=O)C5)CC3)sc2cc1NC(=O)c1cccc(C(C)(F)F)n1 (stereo partly drawn) [I-19] | 50 to 100 | 100 to 500 | 50 to 100 | < 50 | 
CN(C[C@H]1CC[C@H](c2nc3cc(C(C)(C)O)c(NC(=O)c4cccc(C(F)(F)F)n4)cc3s2)CC1)[C@H]1CC[C@H](Nc2cccc3c2C(=O)N(C2CCC(=O)NC2=O)C3=O)CC1 (stereo partly drawn) [I-28] | 50 to 100 | 100 to 500 | < 50 | < 50 | 
Cc1cc(F)cc(C(=O)Nc2cc3sc([C@H]4CC[C@H](CN5CC6(CC(CCNc7cccc8c7C(=O)N(C7CCC(=O)NC7=O)C8=O)C6)C5)CC4)nc3cc2C(C)(C)O)n1 (stereo partly drawn) [I-33] | < 50 | < 50 | < 50 | < 50 | 
CC(C)(O)c1cc2nc(N3CCC(CN4CCC5(CC4)CC(CNc4cccc6c4C(=O)N(C4CCC(=O)NC4=O)C6=O)C5)CC3)sc2cc1NC(=O)c1cccc(C(F)(F)F)n1 (stereo not drawn) [I-35] | < 50 | 500 to 1000 | 50 to 100 | < 50 | 
CC(C)(O)c1cc2nc([C@H]3CC[C@H](CN4CC5(CC(CCNc6cccc7c6C(=O)N(C6CCC(=O)NC6=O)C7=O)C5)C4)CC3)sc2cc1NC(=O)c1cccc(C(F)F)n1 (stereo partly drawn) [I-47] | < 50 | < 50 | < 50 | < 50 | 
CC(C)(O)c1cc2nc([C@H]3CC[C@H](CN4CCC(CCNc5cccc6c5C(=O)N(C5CCC(=O)NC5=O)C6=O)CC4)CC3)sc2cc1NC(=O)c1cccc(C(F)(F)F)n1 (stereo partly drawn) [I-24] | < 50 | < 50 | < 50 | < 50 | 
CC(C)(O)c1cc2nc([C@H]3CC[C@H](CN4CCC5(CC4)CC(CNc4cccc6c4C(=O)N(C4CCC(=O)NC4=O)C6=O)C5)CC3)sc2cc1NC(=O)c1cccc(C(F)(F)F)n1 (stereo partly drawn) [I-29] | < 50 | < 50 | < 50 | < 50 | 
CN(C[C@H]1CC[C@H](c2nc3cc(C(C)(C)O)c(NC(=O)c4cccc(C(F)(F)F)n4)cc3s2)CC1)[C@H]1CC[C@]2(CC1)C[C@@H](CNc1cccc3c1C(=O)N(C1CCC(=O)NC1=O)C3=O)C2 (stereo partly drawn) [I-25] | < 50 | < 50 | 50 to 100 | < 50 | 
Cc1cccc(C(=O)Nc2cc3sc([C@H]4CC[C@H](CN(C)[C@H]5CC[C@H](Nc6cccc7c6C(=O)N(C6CCC(=O)NC6=O)C7=O)CC5)CC4)nc3cc2C(C)(C)O)n1 (stereo partly drawn) [I-23] | 100 to 500 | 100 to 500 | < 50 | < 50 | 
Cc1nccc(C(=O)Nc2cc3sc([C@H]4CC[C@H](CN5CC6(CC(CCNc7cccc8c7C(=O)N(C7CCC(=O)NC7=O)C8=O)C6)C5)CC4)nc3cc2C(C)(C)O)n1 (stereo partly drawn) [I-51] |  | < 50 | > 1000 |  | 
CC(C)(O)c1cc2nc([C@H]3CC[C@H](CN4CC5(CC(CCNc6cccc7c6C(=O)N(C6CCC(=O)NC6=O)C7=O)C5)C4)CC3)sc2cc1NC(=O)c1cccc(C(F)(F)F)n1 (stereo partly drawn) [I-3, N-[2-[4-[[6-[2-[[2-(2,6-dioxo-3-piperidyl)-1,3-dioxo-isoindolin-4-yl]amino]ethyl]-2-azaspiro[3.3]heptan-2-yl]methyl]cyclohexyl]-5-(1-hydroxy-1-methyl-ethyl)-1,3-benzothiazol-6-yl]-6-(trifluoromethyl)pyridine-2-carboxamide] | < 50 |  | < 50 | < 50 | 50 to 100
